Our source for the IC50 values is patent US9045493B2, “Furo[3,2-b]- and thieno[3,2-b]pyridin derivatives” (Merck Patent GmbH, priority 2012, dated 2015).

One assay addresses T1, IKKε (Homo sapiens, UniProt Q14164).
T1 sequence (Q14164 1-716): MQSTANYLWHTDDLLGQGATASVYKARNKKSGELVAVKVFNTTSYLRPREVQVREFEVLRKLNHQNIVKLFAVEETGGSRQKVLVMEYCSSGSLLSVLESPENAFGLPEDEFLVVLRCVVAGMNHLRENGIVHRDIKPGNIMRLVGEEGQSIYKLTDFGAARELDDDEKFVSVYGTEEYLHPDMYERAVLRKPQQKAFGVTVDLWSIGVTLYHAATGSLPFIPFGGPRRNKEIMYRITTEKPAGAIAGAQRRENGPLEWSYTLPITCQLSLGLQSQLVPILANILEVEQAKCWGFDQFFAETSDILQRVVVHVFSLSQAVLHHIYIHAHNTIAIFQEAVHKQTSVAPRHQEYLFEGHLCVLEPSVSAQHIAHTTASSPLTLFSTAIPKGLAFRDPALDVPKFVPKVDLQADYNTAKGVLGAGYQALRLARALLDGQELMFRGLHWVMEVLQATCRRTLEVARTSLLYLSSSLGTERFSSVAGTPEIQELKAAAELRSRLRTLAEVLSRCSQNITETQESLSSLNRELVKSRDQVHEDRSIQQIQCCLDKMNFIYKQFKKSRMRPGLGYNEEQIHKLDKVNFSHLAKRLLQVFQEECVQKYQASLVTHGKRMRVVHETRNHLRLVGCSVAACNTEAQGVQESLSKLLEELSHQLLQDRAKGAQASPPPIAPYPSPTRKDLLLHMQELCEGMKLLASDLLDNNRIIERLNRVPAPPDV
As to the kind of experiment: IKKε kinase assay (384-well Flashplate). Type of assay: biochemical. The note with it: 10 μM ATP, 2 hours at 30° C.; read-out: IKKε enzyme assay IC50. Here is the method: The kinase assay is performed either as 384-well Flashplate assay (for e.g. Topcount measurement).
1 nM IKKε, 800 nM biotinylated IκBα(19-42) peptide (Biotin-C6-C6-[…]) and 10 μM ATP (spiked with 0.3 μCi ^33P-ATP/well) are incubated in a total volume of 50 μl (10 mM MOPS, 10 mM Mg-acetat, 0.1 mM EGTA, 1 mM Dithiothreitol, 0.02% Brij35, 0.1% BSA, 0.1% BioStab, pH 7.5) with or without test compound for 2 hours at 30° C. The reaction is stopped with 25 μl 200 mM EDTA. After 30 Min at room temperature the liquid is removed and each well washed thrice with 100 μl 0.9% sodium chloride solution. […] Radioactivity is measured with Topcount (PerkinElmer). Results (e.g. IC50-values) are calculated with program tools provided by the IT-department (e.g. AssayExplorer, Symyx).

Assay [1] concerns the target T2, TANK binding kinase (TBK1) (Homo sapiens, UniProt Q9UHD2).
T2 sequence (Q9UHD2 1-729): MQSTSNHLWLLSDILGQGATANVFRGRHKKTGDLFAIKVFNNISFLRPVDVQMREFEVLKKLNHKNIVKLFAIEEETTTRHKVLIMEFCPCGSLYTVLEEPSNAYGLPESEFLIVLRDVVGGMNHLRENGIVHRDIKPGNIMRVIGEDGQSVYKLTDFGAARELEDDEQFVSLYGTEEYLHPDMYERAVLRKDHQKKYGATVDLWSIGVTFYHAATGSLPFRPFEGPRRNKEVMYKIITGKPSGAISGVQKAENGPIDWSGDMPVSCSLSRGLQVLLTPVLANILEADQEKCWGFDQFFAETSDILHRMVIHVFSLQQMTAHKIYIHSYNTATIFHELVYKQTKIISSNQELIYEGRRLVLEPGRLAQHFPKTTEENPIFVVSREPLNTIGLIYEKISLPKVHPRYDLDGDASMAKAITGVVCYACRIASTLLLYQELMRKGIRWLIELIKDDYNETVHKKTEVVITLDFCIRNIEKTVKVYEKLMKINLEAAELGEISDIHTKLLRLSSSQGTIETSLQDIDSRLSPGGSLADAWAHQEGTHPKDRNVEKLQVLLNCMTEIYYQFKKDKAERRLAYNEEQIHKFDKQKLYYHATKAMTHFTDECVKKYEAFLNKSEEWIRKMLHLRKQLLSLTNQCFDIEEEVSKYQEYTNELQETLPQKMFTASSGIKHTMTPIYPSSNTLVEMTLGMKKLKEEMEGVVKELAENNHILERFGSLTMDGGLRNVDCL
As to the kind of experiment: TBK1 enzyme assay (384-well Flashplate kinase assay). In kind it is biochemical. The settings on record: 10 μM ATP, 120 Min at 30° C. Here is the method:
The kinase assay is performed as 384-well Flashplate assay (for e.g. Topcount measurement.
0.6 nM TANK binding kinase (TBK1), 800 nM biotinylated MELK-derived peptide (Biotin-Ah-Ah-[…]) and 10 μM ATP (spiked with 0.25 μCi ^33P-ATP/well) are incubated in a total volume of 50 μl (10 mM MOPS, 10 mM Mg-acetat, 0.1 mM EGTA, 1 mM DTT, 0.02% Brij35, 0.1% BSA, pH 7.5) with or without test compound for 120 Min at 30° C. The reaction is stopped with 25 μl 200 mM EDTA. After 30 Min at room temperature the liquid is removed and each well washed thrice with 100 μl 0.9% sodium chloride solution. Nonspecific reaction is determined in presence of 100 nM Staurosporine. Radioactivity is measured in a Topcount (PerkinElmer). Results (e.g. IC50-values) are calculated with program tools provided by the IT-department (e.g. AssayExplorer, Symyx).

As usually defined, the IC50 is the concentration that gives 50% inhibition.

In the case of `COCCNC(=O)c1ccc(-c2cc3nccc(-c4ccc(OC5CCOCC5)c(C#N)c4)c3o2)cc1` [Compound A22, 4-{7-[3-cyano-4-(tetrahydro-pyran-4-yloxy)-phenyl]-furo[3,2-b]pyridin-2-yl}-N-(2-methoxy-ethyl)-benzamide], the IC50 (on IKKε; in assay [1]) was 300 to 3000 nM each time.

As for `CN(C)C(=O)c1ccc(-c2cc3nccc(-c4ccc(OC5CCOCC5)c(C#N)c4)c3o2)cc1` [Compound A23, 4-{7-[3-cyano-4-(tetrahydro-pyran-4-yloxy)-phenyl]-furo[3,2-b]pyridin-2-yl}-N,N-dimethyl-benzamide], the IC50 (on IKKε; in assay [1]) was under 300 nM in each case.

On to `CCN(C)C(=O)c1ccc(-c2cc3nccc(-c4ccc(OC5CCOCC5)c(C#N)c4)c3o2)cc1` [Compound A24, 4-{7-[3-cyano-4-(tetrahydro-pyran-4-yloxy)-phenyl]-furo[3,2-b]pyridin-2-yl}-N-ethyl-N-methyl-benzamide], for which the IC50 (on IKKε; in assay [1]) was under 300 nM throughout.

Turning to `CN(CCO)C(=O)c1ccc(-c2cc3nccc(-c4ccc(OC5CCOCC5)c(C#N)c4)c3o2)cc1` [Compound A25, 4-{7-[3-cyano-4-(tetrahydro-pyran-4-yloxy)-phenyl]-furo[3,2-b]pyridin-2-yl}-N-(2-hydroxy-ethyl)-N-methyl-benzamide], the IC50 (on IKKε; in assay [1]) was under 300 nM throughout.

Turning to `COCCN(C)C(=O)c1ccc(-c2cc3nccc(-c4ccc(OC5CCOCC5)c(C#N)c4)c3o2)cc1` [Compound A26, 4-{7-[3-cyano-4-(tetrahydro-pyran-4-yloxy)-phenyl]-furo[3,2-b]pyridin-2-yl}-N-(2-methoxy-ethyl)-N-methyl-benzamide], the IC50 (on IKKε; in assay [1]) was under 300 nM each time.

Regarding `CCN(CCOC)C(=O)c1cccc(-c2cc3nccc(-c4ccc(OC5CCOCC5)c(C#N)c4)c3o2)c1` [Compound A26a, 3-{7-[3-cyano-4-(tetrahydro-pyran-4-yloxy)-phenyl]-furo[3,2-b]pyridin-2-yl}-N-ethyl-N-(2-methoxy-ethyl)-benzamide], the IC50 (on IKKε; in assay [1]) was 300 to 3000 nM in each case.

For `CN(C)CCNC(=O)c1ccc(-c2cc3nccc(-c4ccc(OC5CCOCC5)c(C#N)c4)c3o2)cc1` [Compound A27, 4-{7-[3-cyano-4-(tetrahydro-pyran-4-yloxy)-phenyl]-furo[3,2-b]pyridin-2-yl}-N-(2-dimethylamino-ethyl)-benzamide], the IC50 (at IKKε; in assay [1]) was under 300 nM throughout.

On to `CN(C)CCN(C)C(=O)c1ccc(-c2cc3nccc(-c4ccc(OC5CCOCC5)c(C#N)c4)c3o2)cc1` [Compound A28, 4-{7-[3-cyano-4-(tetrahydro-pyran-4-yloxy)-phenyl]-furo[3,2-b]pyridin-2-yl}-N-(2-dimethylamino-ethyl)-N-methyl-benzamide], for which the IC50 (on IKKε; in assay [1]) was under 300 nM in each case.

As to `COc1cc(-c2cc3nccc(-c4ccc(OC5CCOCC5)c(C#N)c4)c3o2)ccc1C(=O)N1CC2(COC2)C1` [Compound A30, 5-{2-[3-methoxy-4-(2-oxa-6-aza-spiro[3.3]heptane-6-carbonyl)-phenyl]-furo[3,2-b]pyridin-7-yl}-2-(tetrahydro-pyran-4-yloxy)-benzonitrile], the IC50 (at IKKε; in assay [1]) was under 300 nM each time.

For the compound `CCN(CCN(C)C)C(=O)c1ccc(-c2cc3nccc(-c4ccc(OC5CCOCC5)c(C#N)c4)c3o2)cc1OC` [Compound A31, 4-{7-[3-cyano-4-(tetrahydro-pyran-4-yloxy)-phenyl]-furo[3,2-b]pyridin-2-yl}-N-(2-dimethylamino-ethyl)-N-ethyl-2-methoxy-benzamide], the IC50 (on IKKε; in assay [1]) was under 300 nM throughout.

Take `COc1cc(-c2cc3nccc(-c4ccc(OC5CCOCC5)c(C#N)c4)c3o2)ccc1C(=O)NCCN(C)C` [Compound A32, 4-{7-[3-cyano-4-(tetrahydro-pyran-4-yloxy)-phenyl]-furo[3,2-b]pyridin-2-yl}-N-(2-dimethylamino-ethyl)-2-methoxy-benzamide]: the IC50 (on IKKε; in assay [1]) was under 300 nM throughout.

Consider `N#Cc1cc(-c2ccnc3cc(-c4ccc(C(=O)NCCO)cc4)oc23)ccc1OC1CCOCC1` [Compound A33, 4-{7-[3-cyano-4-(tetrahydro-pyran-4-yloxy)-phenyl]-furo[3,2-b]pyridin-2-yl}-N-(2-hydroxy-ethyl)-benzamide], for which the IC50 (at IKKε; in assay [1]) was under 300 nM throughout.

Regarding `N#Cc1cc(-c2ccnc3cc(-c4ccc(C(=O)N5CCNCC5)cc4)oc23)ccc1OC1CCOCC1` [Compound A34, 5-{2-[4-(piperazine-1-carbonyl)-phenyl]-furo[3,2-b]pyridin-7-yl}-2-(tetrahydro-pyran-4-yloxy)-benzonitrile], the IC50 (at IKKε; in assay [1]) was under 300 nM each time.

As to `COc1cc(-c2cc3nccc(-c4ccc(OC5CCOCC5)c(C#N)c4)c3o2)ccc1C(=O)N1CCNCC1` [Compound A35, 5-{2-[3-methoxy-4-(piperazin-1-carbonyl)-phenyl]-furo[3,2-b]pyridin-7-yl}-2-(tetrahydro-pyran-4-yloxy)-benzonitrile], the IC50 (on IKKε; in assay [1]) was under 300 nM throughout.

On to `N#Cc1cc(-c2ccnc3cc(-c4cnn(C5CCNCC5)c4)oc23)ccc1OC1CCOCC1` [Compound A36, 4-(4-{7-[3-Cyano-4-(tetrahydro-pyran-4-yloxy)-phenyl]-furo[3,2-b]pyridin-2-yl}-pyrazol-1-yl)-piperidin], for which the IC50 (on IKKε; in assay [1]) was under 300 nM each time.

Consider `CN1CCN(C(=O)c2ccc(-c3cc4nccc(-c5ccc(OCC6CCC6)c(C#N)c5)c4o3)cc2)CC1` [Compound A37], for which the half-inhibitory concentration (IC50) (at IKKε; in assay [1]) was under 300 nM throughout.

As to `N#Cc1cc(-c2ccnc3cc(-c4ccc(C(=O)N5CCNCC5)cc4)oc23)ccc1OCC1CCC1` [Compound A38], the IC50 (on IKKε; in assay [1]) was under 300 nM throughout.

As for `CN1CCN(C(=O)c2ccc(-c3cc4nccc(-c5ccc(OCC6CC6)c(C#N)c5)c4o3)cc2)CC1` [Compound A39], the IC50 (on IKKε; in assay [1]) was under 300 nM each time.

As to `N#Cc1cc(-c2ccnc3cc(-c4ccc(C(=O)N5CCNCC5)cc4)oc23)ccc1OCC1CC1` [Compound A40], the IC50 (on IKKε; in assay [1]) was under 300 nM throughout.

Turning to `CN(CCO)C(=O)c1ccc(-c2cc3nccc(-c4ccc(OCC5CC5)c(C#N)c4)c3o2)cc1` [Compound A41], the IC50 (on IKKε; in assay [1]) was under 300 nM throughout.
